Data reported in patent publication US10894784B2, “Heteroarylbenzimidazole compounds” (BAYER PHARMA AKTIENGESELLSCHAFT, priority 2015, dated 2021).

Each compound was assayed against TBK1 (Homo sapiens (Human), UniProt Q9UHD2) (assay: TBK1 low ATP kinase assay (in vitro assay 1)). Settings: in vitro assay 1, read-out: TBK1 low ATP kinase assay IC50.
Format: biochemical

Chain of TBK1 (Q9UHD2 whole entry): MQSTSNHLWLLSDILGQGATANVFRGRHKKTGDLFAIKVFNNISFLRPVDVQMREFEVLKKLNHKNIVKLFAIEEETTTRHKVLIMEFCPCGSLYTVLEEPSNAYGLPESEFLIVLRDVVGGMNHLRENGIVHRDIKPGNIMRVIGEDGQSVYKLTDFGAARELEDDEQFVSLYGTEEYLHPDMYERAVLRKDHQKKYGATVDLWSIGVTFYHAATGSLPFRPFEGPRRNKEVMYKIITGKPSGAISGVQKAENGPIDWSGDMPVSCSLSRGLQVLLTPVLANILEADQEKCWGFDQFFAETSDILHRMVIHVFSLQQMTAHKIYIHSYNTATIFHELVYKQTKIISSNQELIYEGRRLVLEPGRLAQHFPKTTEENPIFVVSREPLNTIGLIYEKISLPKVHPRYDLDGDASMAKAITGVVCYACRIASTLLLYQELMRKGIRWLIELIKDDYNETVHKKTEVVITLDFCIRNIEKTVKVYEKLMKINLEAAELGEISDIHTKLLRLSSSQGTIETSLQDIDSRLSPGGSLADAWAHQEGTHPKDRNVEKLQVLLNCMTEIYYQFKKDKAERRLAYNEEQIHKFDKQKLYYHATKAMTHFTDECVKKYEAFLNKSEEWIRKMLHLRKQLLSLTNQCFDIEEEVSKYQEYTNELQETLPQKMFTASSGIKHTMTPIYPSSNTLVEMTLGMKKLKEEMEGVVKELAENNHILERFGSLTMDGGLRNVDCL

SMILES | IC50 [nM]
Cc1noc(-c2ccc3nc(Nc4cc(CN5CCN(C(=O)C6CC6)CC5(C)C)ccn4)[nH]c3c2)n1 [Example 16.04.04, cyclopropyl{3,3-dimethyl-4-[(2-{[6-(3-methyl-1,2,4-oxadiazol-5-yl)-1H-benzimidazol-2-yl]amino}pyridin-4-yl)methyl]piperazin-1-yl}methanone] | 497
Cc1noc(-c2ccc3nc(Nc4cc(CN5CCN(C(=O)C6CCC6)CC5(C)C)ccn4)[nH]c3c2)n1 [Example 16.04.05, cyclobutyl{3,3-dimethyl-4-[(2-{[6-(3-methyl-1,2,4-oxadiazol-5-yl)-1H-benzimidazol-2-yl]amino}pyridin-4-yl)methyl]piperazin-1-yl}methanone] | 491
O=C(CC(F)(F)F)N1CCN(Cc2ccnc(Nc3nc4ccc(-c5nc(C6CC6)no5)cc4[nH]3)c2)CC1 [Example 17.02, 1-{4-[(2-{[6-(3-cyclopropyl-1,2,4-oxadiazol-5-yl)-1H-benzimidazol-2-yl]amino}pyridin-4-yl)methyl]piperazin-1-yl}-3,3,3-trifluoropropan-1-one] | 64.9
CC(C)Cc1noc(-c2ccc3nc(Nc4cc(CN5CCN(C(=O)CC(F)(F)F)CC5)ccn4)[nH]c3c2)n1 [Example 18.01, 3,3,3-trifluoro-1-(4-{[2-({6-[3-(2-methylpropyl)-1,2,4-oxadiazol-5-yl]-1H-benzimidazol-2-yl}amino)pyridin-4-yl]methyl}piperazin-1-yl)propan-1-one] | 72.4
O=C(CC1CC1)N1CCN(Cc2ccnc(Nc3nc4ccc(-c5ccncn5)cc4[nH]3)c2)CC1 [Example 23.01.01, 2-cyclopropyl-1-{4-[(2-{[6-(pyrimidin-4-yl)-1H-benzimidazol-2-yl]amino}pyridin-4-yl)methyl]piperazin-1-yl}ethanone] | 33.4
O=C(C1CC1)N1CCN(Cc2ccnc(Nc3nc4ccc(-c5ccncn5)cc4[nH]3)c2)CC1 [Example 23.01.02, cyclopropyl{4-[(2-{[6-(pyrimidin-4-yl)-1H-benzimidazol-2-yl]amino}pyridin-4-yl)methyl]piperazin-1-yl}methanone] | 22.1
Cc1cc(CN2CCN(C(=O)CC(F)(F)F)CC2)cc(Nc2nc3ccc(-c4ccncn4)cc3[nH]2)n1 [Example 23.02.01, 3,3,3-trifluoro-1-{4-[(2-methyl-6-{[6-(pyrimidin-4-yl)-1H-benzimidazol-2-yl]amino}pyridin-4-yl)methyl]piperazin-1-yl}propan-1-one] | 20.4
Cc1cc(CN2CCN(C(=O)C3CC3)CC2)cc(Nc2nc3ccc(-c4ccncn4)cc3[nH]2)n1 [Example 23.02.02, cyclopropyl{4-[(2-methyl-6-{[6-(pyrimidin-4-yl)-1H-benzimidazol-2-yl]amino}pyridin-4-yl)methyl]piperazin-1-yl}methanone] | 13.6
O=C(C1CC1)N1CCN(Cc2cc(Nc3nc4ccc(-c5ccncn5)cc4[nH]3)nc(C(F)(F)F)c2)CC1 [Example 23.03.01, cyclopropyl(4-{[2-{[6-(pyrimidin-4-yl)-1H-benzimidazol-2-yl]amino}-6-(trifluoromethyl)pyridin-4-yl]methyl}piperazin-1-yl)methanone] | 161
Cc1nccc(-c2ccc3nc(Nc4cc(CN5CCN(C(=O)CC(F)(F)F)CC5)ccn4)[nH]c3c2)n1 [Example 24.01.01, 3,3,3-trifluoro-1-{4-[(2-{[6-(2-methylpyrimidin-4-yl)-1H-benzimidazol-2-yl]amino}pyridin-4-yl)methyl]piperazin-1-yl}propan-1-one] | 35.4
Cc1nccc(-c2ccc3nc(Nc4cc(CN5CCN(C(=O)C6CCC6)CC5)ccn4)[nH]c3c2)n1 [Example 24.01.02, cyclobutyl{4-[(2-{[6-(2-methylpyrimidin-4-yl)-1H-benzimidazol-2-yl]amino}pyridin-4-yl)methyl]piperazin-1-yl}methanone] | 39.9
Cc1nccc(-c2ccc3nc(Nc4cc(CN5CCN(C(=O)C6CC6)CC5)ccn4)[nH]c3c2)n1 [Example 24.01.03, cyclopropyl{4-[(2-{[6-(2-methylpyrimidin-4-yl)-1H-benzimidazol-2-yl]amino}pyridin-4-yl)methyl]piperazin-1-yl}methanone] | 43.2
Cc1nccc(-c2ccc3nc(Nc4cc(CN5CCN(C(=O)CC6CC6)CC5)ccn4)[nH]c3c2)n1 [Example 24.01.04, 2-cyclopropyl-1-{4-[(2-{[6-(2-methylpyrimidin-4-yl)-1H-benzimidazol-2-yl]amino}pyridin-4-yl)methyl]piperazin-1-yl}ethanone] | 44.4
Cc1cc(CN2CCN(C(=O)C3CC3)CC2)cc(Nc2nc3ccc(-c4ccnc(C)n4)cc3[nH]2)n1 [Example 24.02.01, cyclopropyl{4-[(2-methyl-6-{[6-(2-methylpyrimidin-4-yl)-1H-benzimidazol-2-yl]amino}pyridin-4-yl)methyl]piperazin-1-yl}methanone] | 45.8
Cc1cc(CN2CCN(C(=O)CC(F)(F)F)CC2)cc(Nc2nc3ccc(-c4ccnc(C)n4)cc3[nH]2)n1 [Example 24.02.02, 3,3,3-trifluoro-1-{4-[(2-methyl-6-{[6-(2-methylpyrimidin-4-yl)-1H-benzimidazol-2-yl]amino}pyridin-4-yl)methyl]piperazin-1-yl}propan-1-one] | 63.1
Cc1nccc(-c2ccc3nc(Nc4cc(CN5CCN(C(=O)C6CC6)CC5)cc(C(F)(F)F)n4)[nH]c3c2)n1 [Example 24.03.01, cyclopropyl(4-{[2-{[6-(2-methylpyrimidin-4-yl)-1H-benzimidazol-2-yl]amino}-6-(trifluoromethyl)pyridin-4-yl]methyl}piperazin-1-yl)methanone] | 478
COc1nccc(-c2ccc3nc(Nc4cc(CN5CCN(C(=O)OC(C)(C)C)CC5)ccn4)[nH]c3c2)n1 [Example 25.01.01, tert-butyl 4-[(2-{[6-(2-methoxypyrimidin-4-yl)-1H-benzimidazol-2-yl]amino}pyridin-4-yl)methyl]piperazine-1-carboxylate] | 174

Now from value to compound:

IC50 [nM] | SMILES
97.8 | CC(C)(C)OC(=O)N1CCN(Cc2ccnc(Nc3nc4ccc(-c5nc(C6CC6)no5)cc4[nH]3)c2)CC1 [Example 17.01, tert-butyl 4-[(2-{[6-(3-cyclopropyl-1,2,4-oxadiazol-5-yl)-1H-benzimidazol-2-yl]amino}pyridin-4-yl)methyl]piperazine-1-carboxylate]
56.5 | O=C(CC1CC1)N1CCN(Cc2ccnc(Nc3nc4ccc(-c5nc(C6CC6)no5)cc4[nH]3)c2)CC1 [Example 17.03, 2-cyclopropyl-1-{4-[(2-{[6-(3-cyclopropyl-1,2,4-oxadiazol-5-yl)-1H-benzimidazol-2-yl]amino}pyridin-4-yl)methyl]piperazin-1-yl}ethanone]
102 | C=CCC(=O)N1CCN(Cc2ccnc(Nc3nc4ccc(-c5nc(C6CC6)no5)cc4[nH]3)c2)CC1 [Example 17.04, 1-{4-[(2-{[6-(3-cyclopropyl-1,2,4-oxadiazol-5-yl)-1H-benzimidazol-2-yl]amino}pyridin-4-yl)methyl]piperazin-1-yl}but-3-en-1-one]
38.2 | O=C(C1CC1)N1CCN(Cc2ccnc(Nc3nc4ccc(-c5nc(C6CC6)no5)cc4[nH]3)c2)CC1 [Example 17.05, cyclopropyl{4-[(2-{[6-(3-cyclopropyl-1,2,4-oxadiazol-5-yl)-1H-benzimidazol-2-yl]amino}pyridin-4-yl)methyl]piperazin-1-yl}methanone]
61.3 | O=C(C1CCC1)N1CCN(Cc2ccnc(Nc3nc4ccc(-c5nc(C6CC6)no5)cc4[nH]3)c2)CC1 [Example 17.06, cyclobutyl{4-[(2-{[6-(3-cyclopropyl-1,2,4-oxadiazol-5-yl)-1H-benzimidazol-2-yl]amino}pyridin-4-yl)methyl]piperazin-1-yl}methanone]
102 | Clc1ccccc1N1CCN(Cc2ccnc(Nc3nc4ccc(-c5nc(C6CC6)no5)cc4[nH]3)c2)CC1 [Example 17.07, N-(4-{[4-(2-chlorophenyl)piperazin-1-yl]methyl}pyridin-2-yl)-6-(3-cyclopropyl-1,2,4-oxadiazol-5-yl)-1H-benzimidazol-2-amine]
154 | CC(C)Cc1noc(-c2ccc3nc(Nc4cc(CN5CCN(C(=O)C6CC6)CC5)ccn4)[nH]c3c2)n1 [Example 18.02, cyclopropyl(4-{[2-({6-[3-(2-methylpropyl)-1,2,4-oxadiazol-5-yl]-1H-benzimidazol-2-yl}amino)pyridin-4-yl]methyl}piperazin-1-yl)methanone]
414 | O=C(C1CC1)N1CCN(Cc2ccnc(Nc3nc4ccc(-c5nc(C6CCCC6)no5)cc4[nH]3)c2)CC1 [Example 19.01, {4-[(2-{[6-(3-cyclopentyl-1,2,4-oxadiazol-5-yl)-1H-benzimidazol-2-yl]amino}pyridin-4-yl)methyl]piperazin-1-yl}(cyclopropyl)methanone]
685 | CCC(C)c1noc(-c2ccc3nc(Nc4cc(CN5CCN(C(=O)C6CC6)CC5)ccn4)[nH]c3c2)n1 (centres unmarked) [Example 20.01, (4-{[2-({6-[3-(butan-2-yl)-1,2,4-oxadiazol-5-yl]-1H-benzimidazol-2-yl}amino)pyridin-4-yl]methyl}piperazin-1-yl)(cyclopropyl)methanone]
193 | O=C(C1CC1)N1CCN(Cc2ccnc(Nc3nc4ccc(-c5nc(Cc6ccccc6)no5)cc4[nH]3)c2)CC1 [Example 21.01, {4-[(2-{[6-(3-benzyl-1,2,4-oxadiazol-5-yl)-1H-benzimidazol-2-yl]amino}pyridin-4-yl)methyl]piperazin-1-yl}(cyclopropyl)methanone]
481 | Clc1ccccc1N1CCN(Cc2ccnc(Nc3nc4ccc(-c5noc(C6CC6)n5)cc4[nH]3)c2)CC1 [Example 22.01, N-(4-{[4-(2-chlorophenyl)piperazin-1-yl]methyl}pyridin-2-yl)-6-(5-cyclopropyl-1,2,4-oxadiazol-3-yl)-1H-benzimidazol-2-amine]
779 | CC(C)(C)Cc1nc(-c2ccc3nc(Nc4cc(CN5CCN(c6ccccc6Cl)CC5)ccn4)[nH]c3c2)no1 [Example 22.02, N-(4-{[4-(2-chlorophenyl)piperazin-1-yl]methyl}pyridin-2-yl)-6-[5-(2,2-dimethylpropyl)-1,2,4-oxadiazol-3-yl]-1H-benzimidazol-2-amine]
